# Laboratory results from ChEMBL document CHEMBL3507680, “University of Dundee, Gates Library screen for HepG2 cell viability”.
# Test: Human HepG2 cell viability assay in 384 well format
# Assay type: toxicity, cell-based
# Parameters: dose 125 nL, time 70.5 hour; cytotoxicity at 70.5 h: concentration not given beside the values
# Conditions: HepG2 cells, read-out: Inhibition
row,Compound,cytotoxicity at 70.5 h
1,Cc1c(CN2CCCCC2)c(O)n(CCO)c(=O)c1C#N,-2.11%
2,NC(=O)C1CCN(C(=O)CCSCc2ccccc2)CC1,-5.5%
3,CC(C)N1c2sc(-c3ccsc3)nc2CC1C(=O)NC1CCCC1 (stereo not drawn),-7.06%
4,Nc1nc(N2CCCCCC2)ncc1C(=O)NCc1ccc(F)c(Cl)c1,-10.8%
5,Cc1cc(=O)[nH]c(=O)n1COCc1ccccc1,-18.6%
6,COC(=O)CC1CCN(C(=O)c2ccc(C)cc2)CC1,-4.4%
7,Cn1nnnc1SCc1cc2c(cc1Cl)OCO2,-16%
8,CN(C)CCCNC(=O)c1ccc(Cl)cc1Cl,-14.1%
9,Cn1cnnc1SCc1cc2c(cc1Br)OCO2,-1.06%
10,COc1ccc2c(ccn2CCC(=O)/N=c2\[nH]nc(C3CCCO3)s2)c1 (stereo not drawn),-15.5%
11,Cc1cs/c(=N\C(=O)c2c3c(nc4onc(C)c24)CCC3)[nH]1,-19.5%
12,CN(C)CCNC(=O)c1ccccc1NC(=O)c1cc(Cl)ccc1Cl,26.4%
13,CC1=Nc2c(c(O)nn2C2CCOCC2)C(c2cccnc2)S1 (stereo not drawn),-3.81%
14,COCc1n[nH]/c(=N\C(=O)c2c3c(nc4onc(C)c24)CCC3)s1,-3.26%
15,O=C(CCn1ccc2ccc(Br)cc21)/N=c1\[nH]nc(C2CCCO2)s1 (stereo not drawn),-14.5%
16,O=C(Cn1ccc2ccc(Cl)cc21)/N=c1\[nH]nc(C2CCCO2)s1 (stereo not drawn),-2.63%
17,COC(=O)CC1CCN(C(=O)c2ccccc2-n2nnnc2C)CC1,-12.6%
18,CC1=Nc2c(c(O)nn2C(C)C)C(c2cccnc2)S1 (stereo not drawn),26.1%
19,O=c1cc(-c2ccccc2)nc2n1CCCCC2,23.6%
20,CCOc1cccc(CNc2cccc(C(=O)OC)c2)c1O,-19.3%
21,CCOc1cccc(CNc2ccccc2OC)c1O,-8.56%
22,CCc1ccc(-n2nnc(C(=O)O)c2-c2ccccn2)cc1,-26.2%
23,COc1ccc(-n2nnc(C(=O)O)c2-c2ccccn2)cc1,-14.5%

row,Compound,cytotoxicity at 70.5 h
1,O=S(=O)(NC1=NCN(CCc2ccccc2)CN1)c1ccc(F)cc1,-27.6%
2,O=C(NCCN1CCOCC1)c1nc(-c2ccc3[nH]ccc3c2)no1,-30.5%
3,Cc1c(C)n(Cc2ccccn2)c2nc3c(c(N)c12)CCCCC3,27.5%
4,COc1ccc(N2Cc3nc(=O)n(C(C)C)n3C2=O)cc1,-15.6%
5,CN(C(=O)Cn1nc(-c2ccccc2F)ccc1=O)C1CCS(=O)(=O)C1 (stereo not drawn),-25.7%
6,CN(C(=O)Cn1nc(-c2ccc(Cl)cc2)ccc1=O)C1CCS(=O)(=O)C1 (stereo not drawn),-21.1%
7,Cc1nnc2ccc(N3CCC(C(=O)Nc4nccs4)CC3)nn12,1.41%
8,Cc1c(C)n(Cc2ccccn2)c2nc3c(c(N)c12)CCCCCC3,22%
9,O=c1ccc(-c2cccs2)nn1CN1CCc2ccccc2C1,-23.7%
10,O=C1CC(c2ccc3c(c2)OCO3)c2c(n3ccsc3nc2=O)N1 (stereo not drawn),-9.84%
11,Cc1ccc(N2Cc3nc(=O)n(C(C)C)n3C2=O)cc1,-28.9%
12,Cc1oc(-c2nc(C#N)c(NCC(C)C)o2)cc1S(=O)(=O)N1CCCC1,-13.1%
13,Cc1oc(-c2nc(C#N)c(NC(C)(C)C)o2)cc1S(=O)(=O)N1CCCC1,-8.41%
14,COc1ccc(NS(=O)(=O)CC2=NC(=O)n3cccc3C2=O)cc1Cl,-8.91%
15,O=c1c(S(=O)(=O)N2CCCCC2)cccn1Cc1cccnc1,-9.28%
16,COc1ccc(-c2nc(C)cc(SCC(N)=O)n2)cc1,-2.23%
17,CCCN(CCC)c1ncc(S(=O)(=O)c2ccc(C)cc2)c(N)n1,-19.9%
18,CCCN(CCC)c1ncc(S(=O)(=O)c2ccc(OC)cc2)c(N)n1,-9.23%
19,Cc1c(C(=O)O)cnn1-c1ccc(-c2nc(C3CC3)no2)cn1,-14%
20,Cc1c(C(=O)N2CCN(c3ccccn3)CC2)n(C)c2ccc(Cl)cc12,-13.6%
21,CCc1c(C)n(CCOC)c2nc3ccccc3n2c1=O,19.8%
22,CC1CC(=O)c2cnc3nc(N4CCOCC4)[nH]c(=O)c3c2C1 (stereo not drawn),-15.8%
23,OCCNc1nc(NCCc2ccccc2)nc2nccnc12,-1.57%

row,Compound,cytotoxicity at 70.5 h
1,CC1(C)CC(=O)c2cnc3nc(N4CCCCC4)nc(O)c3c2C1,-11%
2,COc1ccccc1C1CC(=O)Nc2c1c(=O)[nH]n2C(C)C (stereo not drawn),25.6%
3,CCOC(=O)CC(c1ccc(OC)cc1)c1c(O)n[nH]c1C (stereo not drawn),-13.7%
4,O=C(NCCc1nccs1)C(c1ccccc1)n1cnnn1 (stereo not drawn),-4.94%
5,CC(O)CNC(=O)c1nc(Cc2c(Cl)cccc2Cl)no1 (stereo not drawn),-4.9%
6,c1cc(C2CCN(c3cnccn3)CC2)ncn1,1.96%
7,CN(C)c1nccc(C2CN(c3ccccc3)CCO2)n1 (stereo not drawn),-4.49%
8,CN(C)CCn1nc(C2CCN(S(=O)(=O)N(C)C)C2)c2cccnc21 (stereo not drawn),-3.16%
9,Cc1cc(C)n(CCNCc2cc(-c3ccc(F)cc3)c[nH]c2=O)n1,1.4%
10,Cn1cc(CN2CCc3nc4sccc4c(=O)n3CC2)cn1,-3.58%
11,CCC(C)NC(=O)c1cc(S(=O)(=O)N(C)C)c(C)s1 (stereo not drawn),-4.34%
12,Cc1cc(Nc2cnccn2)cc(C2CCCN2)n1 (stereo not drawn),12.2%
13,Nc1ncc(-c2ccc(Cl)cc2)c(C2CCCNC2)n1 (stereo not drawn),37.3%
14,Cc1cc(N(C)C)nc(C2COCCN2Cc2csc(C)n2)n1 (stereo not drawn),10.4%
15,Cc1cc(NC2CC3(CCN(Cc4cscn4)C3)C2)ncn1 (stereo not drawn),-6.43%
16,c1cnnc(N[C@@H]2CC[C@@H]3CN(Cc4ccc5cc[nH]c5c4)C[C@@H]32)c1,-9.52%
17,COCC(=O)NC[C@]1(O)CN(Cc2ccc3c(c2)OCCO3)C[C@H]1O,-12.9%
18,CS(=O)(=O)N[C@@H]1CN(Cc2ccc3ncccc3c2)C[C@H]1O,-5.91%
19,CCn1cc(NC(=O)CN2CCC(Oc3ccccc3C)CC2)c(C)n1,-2.26%
20,Cc1cc(C)nc(Nc2nccnc2C2CCCN(C(CO)CO)C2)n1 (stereo not drawn),-6.39%
21,NC(=O)CN1CCC(c2noc3cc(F)ccc23)CC1,39.4%
22,CC(C)(C)C(=O)N1CCCC1(C(=O)N1CCCC1)c1cnccn1 (stereo not drawn),18.9%
23,CCc1nnc(Nc2cc(C)nc(C3CN(C(=O)C(C)C)CCO3)c2)s1 (stereo not drawn),9.87%

row,Compound,cytotoxicity at 70.5 h
1,COc1cccc(F)c1CN1CCC(c2nc(C)cc(C)n2)C1 (stereo not drawn),14.3%
2,Cn1ccnc1CNC(=O)CC1CCCCO1 (stereo not drawn),-6.84%
3,COc1ccccc1OCCc1nnc(NC(=O)C2CC23CCC3)s1 (stereo not drawn),-2.4%
4,CC1CCCN(c2ncc(-c3ccccc3F)c(-c3nccn3C)n2)C1 (stereo not drawn),-12.5%
5,CCCC(=O)Nc1cccc([C@H]2C[C@@H](NC(C)=O)CCO2)c1,-12.2%
6,CC(=O)N[C@H]1CCO[C@@H](c2cccc(NC(=O)C(C)(C)C)c2)C1,-7.68%
7,Cc1cc(N2CCOC(c3ccc(N(C)C)cn3)C2)nc(N)n1 (stereo not drawn),-6.31%
8,Cc1ccc(-c2ccccc2CC2(C(=O)NC(C)C)CCCNC2)cc1 (stereo not drawn),-3.27%
9,CC(=O)N1CC(C(=O)NC(C)c2cnn(C)c2C)C1 (stereo not drawn),-4.41%
10,Cn1ccc(NC(=O)CN2CCN(C3CCCC3)C(=O)C2)n1,-4.86%
11,CC(=O)N1CCC(c2ncc(C(=O)Nc3ccc(F)cc3)c(C)n2)CC1,12.6%
12,COc1ccc(NC(=O)c2cnc(C3CCN(C)CC3)nc2C)cc1,-2.26%
13,CN1C[C@H](c2ccccc2)[C@H]2CN(C(=O)Cc3cccc(O)c3)CC[C@H]21,-2.25%
14,Cc1ccc(C(=O)NCc2ccnc(C3CCCOC3)n2)s1 (stereo not drawn),10.5%
15,Cc1nccn1[C@@H]1CC[C@@H](N(C)S(=O)(=O)c2ccc(F)cc2)[C@H]1O,-3.16%
16,CC(C)C(=O)NCCc1nc(-c2ccncc2)n[nH]1,-2.41%
17,OCCN1CCCC(c2cccc(-c3ccccc3F)n2)C1 (stereo not drawn),-5.22%
18,Cn1ccc(C(=O)N2CCCCC2c2cc(CCO)[nH]n2)n1 (stereo not drawn),-1.7%
19,CN1CCCC(c2nccnc2-c2cccc(C(F)(F)F)c2)C1 (stereo not drawn),-0.583%
20,Cc1nc(C)n(CCC(=O)NCC2CCCOC2)n1 (stereo not drawn),-0.994%
21,CCc1ccccc1Nc1noc2c1CN(C(=O)c1ccn(C)n1)CC2,2.97%
22,COCCC(=O)NCc1ccc(-c2ncncc2C(=O)N(C)C)cc1,6.32%
23,CN(C)C(=O)c1cncnc1-c1ccc(CNC(=O)C2CCCO2)cc1 (stereo not drawn),10.6%

row,Compound,cytotoxicity at 70.5 h
1,CC(C)C(NC(=O)C1CCCC1)c1cc(O)nc(-c2cccnc2)n1 (stereo not drawn),11%
2,CCn1ncc(CN2CCC(c3ncc(Cl)cc3S(C)(=O)=O)CC2)c1C,-8.43%
3,C/C(Cl)=C/CNC(=O)[C@H]1CC[C@]2(CC1)CN(C)C(=O)c1ccccc1O2,-6.71%
4,COCCC(=O)NCCc1nc2cc(-c3ccc(OC)cc3)ncn2n1,-6.53%
5,CCc1c(C)nn2c(O)cc(C3CCN(C(=O)c4ccccn4)C3)nc12 (stereo not drawn),-2.35%
6,CCc1c(C)nn2c(O)cc(C3CCN(C(=O)c4ccn(C)n4)C3)nc12 (stereo not drawn),16.4%
7,O=C(c1cc(C2CC2)on1)N1C[C@H]2CC[C@](O)(c3ccc(F)cc3)[C@H]2C1,-0.34%
8,c1csc(-c2noc(C3CCCNC3)n2)c1 (stereo not drawn),-16.5%
9,CN(C)Cc1cc(C2CCN(C(=O)C3CC34CCC4)CC2)nn1C (stereo not drawn),-0.0295%
10,Cc1csc(C(Cc2ccsc2)NC(=O)CN(C)Cc2cccnc2)n1 (stereo not drawn),-0.677%
11,Nc1ncnc2nc(C3CCCCN3)ccc12 (stereo not drawn),-6.59%
12,Cc1ccc(-c2ccccc2CC2CNCCNC2=O)c(C)c1 (stereo not drawn),31.4%
13,Cc1nccc(C2(C)CCCNC2)n1 (stereo not drawn),16.5%
14,COc1ncccc1CN1CCn2c(C(=O)N3CCCC3)cnc2C1,-5.02%
15,COc1cccc(CN(Cc2ccco2)Cc2[nH]cnc2C)c1,6.19%
16,Cc1nc(CN2CCC(O)(c3ccccc3F)CC2)c2ccccn12,11.2%
17,c1ccc([C@@H]2CN(Cc3ccncc3)C[C@H]2c2cc[nH]n2)cc1,-1.08%
18,Cc1ccc2c(CC(=O)N(C)CCN(C)C)c(C)[nH]c2c1C,2.2%
19,Cc1nn(C(C)C)c(C)c1CN1CCN(C2CCCCC2)C(=O)C1,-3.48%
20,CCc1cccc2c(CC(=O)N(C)CCN(C)C)c(C)[nH]c12,-8.74%
21,CN(C)C(=O)c1cn[nH]c1C1CCCN1Cc1nccn1C (stereo not drawn),22.5%
